For this experiment, the target named is T1, recombinant human MGAT2 enzyme (Homo sapiens, UniProt Q3SYC2).
T1 construct: made in house; host or cells: CHO-K1 (Jump-In CHO-K1 Kit, Life Technologies); microsomal fraction used as the enzyme solution
The experiment in a line: Test for human MGAT2 activity inhibitory action (14C-oleoyl CoA, recombinant enzyme microsomes). Conditions: for IC50: read-out: IC50. The arrangement: key to Potency relative to Comparative Example 1 (higher = more potent): % inhibition = {1−(C−B)/(A−B)}×100, B = 10 μM Comparative Example 1. It is filed as biochemical. As to the method: The human MGAT2 gene described in Am. J. Physiol. Endocrinol. Metab. 285: E927-E937, 2003 was expressed using Jump-In™ CHO-K1 Kit (Life technologies) as described in the attached manual. The cells were suspended in a buffer containing Tris-hydrochloric acid (pH 7.4) at a final concentration of 1 mM, 1 mM ethylenediaminetetraacetic acid, 1 mM dithiothreitol, 250 mM sucrose, and complete protease inhibitor cocktail (Roche applied Science), and then disrupted using a Teflon homogenizer (AS ONE Corporation), followed by centrifugation at 130 g for 10 minutes. The supernatant was further centrifuged at 100,000 g for 1 hour to obtain a pellet as microsomes containing the recombinant enzyme, and a solution obtained by suspending this pellet at a protein concentration of about 800 to 1900 μg/ml was used as an MGAT recombinant enzyme solution.
To a buffer containing 50 mM Tris-hydrochloric acid (pH 7.4), 6 mM magnesium chloride, and 2 mg/mL bovine serum albumin, a test compound was added, and the final concentration of dimethyl sulfoxide was adjusted to 0.3%. Moreover, 2-monooleoyl glycerol, oleoyl CoA, 1-^14C-oleoyl CoA (Perkin Elmer), and orlistat (SIGMA) were added at final concentrations of 50 μM, 50 μM, 2.2 μM, and 8.3 μM, respectively, followed by incubation at 37° C. for 10 minutes. After 10 minutes, the recombinant human MGAT2 enzyme solution was added at a final concentration of 0.67 μg/mL, and the reaction was started, with the amount of the reaction solution being 150 μl. The reaction was carried out at 37° C. for 30 minutes.
After 30 minutes, the reaction was stopped by adding 300 μl of isopropanol:heptane:water=(80:20:2) to the reaction liquid. Further, 200 μl of heptane and 100 μl of water were added, followed by stirring. Then, 100 μl of the upper layer was transferred to a 96-well plate (Corning), and mixed with 100 μl of liquid scintillator (LumaSafe Plus, Lumac). Then, the ^14C count was quantitatively determined using TopCount NXT™ microplate scintillation luminescence counter (Perkin Elmer).
The ^14C count in a case where no test compound was added was defined as A, the ^14C count in a case where 10 μM of the compound (Comparative Example 1) of Example No. 8 of WO2008/038768 was added was defined as B, and the ^14C count in the case where the test compound was added was taken as C. For this case, {1−(C−B)/(A−B)}×100(%) was calculated as the human MGAT2 activity inhibition ratio of the test compound (shown in the column named vs Comp. Ex. 1 in the following Table). A greater value of the “vs Comparative Example 1” means that the MGAT2 activity inhibitory action of the compound of Example was higher as compared to the MGAT2 activity inhibitory action of the compound of Comparative Example 1 (i.e., the human MGAT2 activity inhibition ratio was higher). […] Since this evaluation test was conducted for two separate groups, the test results of the two groups are shown separately in Table (First Test) and Table 4 (Second Test).
Next, the compounds of Examples 25 to 60 of the present invention were also investigated for their pharmacological action by using the same method as in Examples 1 to 24. […] Note that, a comparative evaluation test against the compound of Comparative Example 1 was conducted for each of the compounds of Examples (in every measurement of the inhibitory activity of the compounds of Examples 25 to 60, the inhibitory activity of the compound of Comparative Example 1 was measured). The 50% inhibition concentrations of Comparative Example 1 in the measurement of the inhibitory activities of the compounds of Examples 25 to 60 were shown in Table 5 as “IC50 (nM) of Comparative Example 1.”

Setting [1] is: Table 5, Examples 25 to 60, same method.
Setting [2] is: Table 5, relative to Comparative Example 1 measured in the same run.
The mark [3] stands for this setting: Second Test (Table 4), relative to Comparative Example 1.
Where [4] appears, read: First Test (Table 3), relative to Comparative Example 1, greater value = higher inhibitory action.

Molecules are shown by their SMILES. Structures can show the parent of a compound that is named as a salt. Where two headings read alike, the source gives them in different places.

T1 sequence (Q3SYC2 whole entry): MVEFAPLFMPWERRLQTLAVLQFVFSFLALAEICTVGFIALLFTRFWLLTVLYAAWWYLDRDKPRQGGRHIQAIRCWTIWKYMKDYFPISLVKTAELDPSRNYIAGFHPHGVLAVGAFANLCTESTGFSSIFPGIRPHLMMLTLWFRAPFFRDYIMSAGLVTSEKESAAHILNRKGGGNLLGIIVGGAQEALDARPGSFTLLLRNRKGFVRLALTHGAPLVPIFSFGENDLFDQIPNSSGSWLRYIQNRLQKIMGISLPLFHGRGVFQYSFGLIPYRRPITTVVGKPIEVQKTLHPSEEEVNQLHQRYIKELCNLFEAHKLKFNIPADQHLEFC

For orientation: IC50 means the concentration needed to halve the response being measured. With `O=C(CCNCCc1ccc(O)cc1)N1CCc2nc(SC3CCC3)n(-c3ccccc3)c(=O)c2C1` [Example 30, 2-cyclobutylsulfanyl-6-[3-[2-(4-hydroxyphenyl)ethylamino]propanoyl]-3-phenyl-7,8-dihydro-5H-pyrido[4,3-d]pyrimidin-4-one trifluoroacetate], the IC50 under setting [1] was 3 nM. The “Potency relative to Comparative Example 1 (higher = more potent)” value under setting [2] was 69.
For `O=C(CCNCc1ccc(C(F)(F)F)cc1)N1CCc2nc(SC3CCC3)n(-c3ccccc3)c(=O)c2C1` [Example 19, 2-cyclobutylsulfanyl-3-phenyl-6-[3-[[4-(trifluoromethyl)phenyl]methylamino]propanoyl]-7,8-dihydro-5H-pyrido[4,3-d]pyrimidin-4-one trifluoroacetate], under “Second Test (Table 4)”, the IC50 amounted to 0.9 nM. Under setting [3], the “Potency relative to Comparative Example 1 (higher = more potent)” value is 352.
Consider `O=C(CCNC[C@H](O)c1ccc(F)cc1)N1CCc2nc(SC3CCC3)n(-c3ccccc3)c(=O)c2C1` [Example 43, 2-cyclobutylsulfanyl-6-[3-[[(2R)-2-(4-fluorophenyl)-2-hydroxy-ethyl]amino]propanoyl]-3-phenyl-7,8-dihydro-5H-pyrido[4,3-d]pyrimidin-4-one trifluoroacetate], for which the IC50 under setting [1] was 2.5 nM.
As to `O=C(CCCNCc1ccc(C(F)(F)F)cc1)N1CCc2nc(SC3CCC3)n(-c3ccccc3)c(=O)c2C1` [Example 22, 2-cyclobutylsulfanyl-3-phenyl-6-[4-[[4-trifluoromethyl)phenyl]methylamino]butanoyl]-7,8-dihydro-5H-pyrido[4,3-d]pyrimidin-4-one trifluoroacetate], where the note is “Second Test (Table 4)”, the concentration for half-maximal inhibition (IC50) amounted to 3.8 nM. The “Potency relative to Comparative Example 1 (higher = more potent)” value under setting [3] stood at 79.
Take `O=C(CNCc1cccc(Cl)c1)N1CCc2nc(SC3CCC3)n(-c3ccccc3)c(=O)c2C1` [Example 4, 6-[2-[(3-chlorophenyl)methylamino]acetyl]-2-cyclobutylsulfanyl-3-phenyl-7,8-dihydro-5H-pyrido 4,3-[d]pyrimidin-4-one trifluoroacetate]: the 50% inhibitory concentration (IC50) (First Test (Table 3)) was found to be 2.9 nM. Also, the “Potency relative to Comparative Example 1 (higher = more potent)” value under setting [4] stood at 77.
The corresponding values for `O=C(CNCCc1ccccc1)N1CCc2nc(SC3CCC3)n(-c3ccccc3)c(=O)c2C1` [Example 8, 2-cyclobutylsulfanyl-6-[2-(phenylethylamino)acetyl]-3-phenyl-7,8-dihydro-5H-pyrido[4,3-d]pyrimidin-4-one trifluoroacetate] are 3.5 nM and 63.
Consider `O=C(CCNCc1cc2ccccc2[nH]1)N1CCc2nc(SC3CCC3)n(-c3ccccc3)c(=O)c2C1` [Example 21, 2-cyclobutylsulfanyl-6-[3-(1H-indol-2-ylmethylamino)propanoyl]-3-phenyl-7,8-dihydro-5H-pyrido[4,3-d]pyrimidin-4-one trifluoroacetate], for which the 50% inhibitory concentration (IC50) (Second Test (Table 4)) turned out to be 1.2 nM. The “Potency relative to Comparative Example 1 (higher = more potent)” value under setting [3] stood at 246.
Take `[2H]c1c([2H])c([2H])c(C([2H])([2H])NCCC(=O)N2CCc3nc(SC4CCC4)n(-c4ccccc4)c(=O)c3C2)c([2H])c1[2H]` [Example 25, 2-cyclobutylsulfanyl-6-[3-[[dideuterio-(2,3,4,5,6-pentadeuteriophenyl)methyl]amino]propanoyl]-3-phenyl-7,8-dihydro-5H-pyrido[4,3-d]pyrimidin-4-one trifluoroacetate]: the IC50 under setting [1] stood at 2.2 nM. Besides, under setting [2], the “Potency relative to Comparative Example 1 (higher = more potent)” value was 111.
Consider `O=C(CNCc1ccc(COc2ccccc2)cc1)N1CCc2nc(SC3CCC3)n(-c3ccccc3)c(=O)c2C1` [Example 7, 2-cyclobutylsulfanyl-6-[2-[[4-(phenoxymethyl)phenyl]methylamino]acetyl]-3-phenyl-7,8-dihydro-5H-pyrido[4,3-d]pyrimidin-4-one trifluoroacetate], for which the IC50 (First Test (Table 3)) amounted to 2.3 nM. The “Potency relative to Comparative Example 1 (higher = more potent)” value under setting [4] stood at 75.
For the molecule `O=C(CCNCCNc1ccccc1)N1CCc2nc(SC3CCC3)n(-c3ccccc3)c(=O)c2C1` [Example 38, 6-[3-(2-aminolinoethylamino)propanoyl]-2-cyclobutylsulfanyl-3-phenyl-7,8-dihydro-5H-pyrido[4,3-d]pyrimidin-4-one trifluoroacetate], the 50% inhibitory concentration (IC50) under setting [1] was 1.4 nM. Also, the “Potency relative to Comparative Example 1 (higher = more potent)” value under setting [2] was 211.
For `O=C(CNCCCc1ccccc1)N1CCc2nc(SC3CCC3)n(-c3ccccc3)c(=O)c2C1` [Example 2, 2-cyclobutylsulfanyl-3-phenyl-6-[2-(3-phenylpropylamino)acetyl]-7,8-dihydro-5H-pyrido[4,3-d]pyrimidin-4-one trifluoroacetate], the 50% inhibitory concentration (IC50) (First Test (Table 3)) was 1.3 nM. The “Potency relative to Comparative Example 1 (higher = more potent)” value under setting [4] amounted to 171.
On to `CC(C)[C@H](CNCCC(=O)N1CCc2nc(SC3CCC3)n(-c3ccccc3)c(=O)c2C1)Nc1ccc(Cl)cc1` [Example 40, 6-[3-[[(2R)-2-(4-chloroanilino)-3-methyl-butyl]amino]propanoyl]-2-cyclobutylsulfanyl-3-phenyl-7,8-dihydro-5H-pyrido[4,3-d]pyrimidin-4-one trifluoroacetate], for which the IC50 under setting [1] amounted to 0.7 nM.
With `O=C(CCNCc1ccccc1)N1CCc2nc(SC3CCC3)n(-c3ccccc3)c(=O)c2C1` [Example 10, 6-[3-(benzylamino)propanoyl]-2-cyclobutylsulfanyl-3-phenyl-7,8-dihydro-5H-pyrido[4,3-d]pyrimidin-4-one trifluoroacetate], under “First Test (Table 3)”, the IC50 was 0.82 nM. Under setting [4], the “Potency relative to Comparative Example 1 (higher = more potent)” value is 273.
As to `Cc1cc2cccc(CNCCC(=O)N3CCc4nc(SC5CCC5)n(-c5ccccc5)c(=O)c4C3)c2o1` [Example 26, 2-cyclobutylsulfanyl-6-[3-[(2-methylbenzofuran-7-yl)methylamino]propanoyl]-3-phenyl-7,8-dihydro-5H-pyrido[4,3-d]pyrimidin-4-one trifluoroacetate], the half-inhibitory concentration (IC50) under setting [1] is 1 nM. For the same molecule, the “Potency relative to Comparative Example 1 (higher = more potent)” value under setting [2] came to 196.
Regarding `O=C(CCNCC(O)COc1ccc(Cl)cc1)N1CCc2nc(SC3CCC3)n(-c3ccccc3)c(=O)c2C1` (stereo not shown) [Example 45, 6-[3-[[3-(4-chlorophenoxy)-2-hydroxy-propyl]amino]propanoyl]-2-cyclobutylsulfanyl-3-phenyl-7,8-dihydro-5H-pyrido[4,3-d]pyrimidin-4-one trifluoroacetate], the IC50 under setting [1] was found to be 1.3 nM.
Turning to `O=C(CCNCC(O)c1ccccc1)N1CCc2nc(SC3CCC3)n(-c3ccccc3)c(=O)c2C1` (stereo not shown) [Example 29, 2-cyclobutylsulfanyl-6-[3-[(2-hydroxy-2-phenyl-ethyl)amino]propanoyl]-3-phenyl-7,8-dihydro-5H-pyrido[4,3-d]pyrimidin-4-one trifluoroacetate], the 50% inhibitory concentration (IC50) under setting [1] turned out to be 1.5 nM. Further, the “Potency relative to Comparative Example 1 (higher = more potent)” value under setting [2] is listed as 138.
As to `O=C(CNCCCCCNc1ccc(C(F)(F)F)cc1)N1CCc2nc(SC3CCC3)n(-c3ccccc3)c(=O)c2C1` [Example 55, 2-cyclobutylsulfanyl-3-phenyl-6-[2-[5-[4-(trifluoromethyl)anilino]pentylamino]acetyl]-7,8-dihydro-5H-pyrido[4,3-d]pyrimidin-4-one trifluoroacetate], the IC50 under setting [1] is below 1 nM. In addition, the “Potency relative to Comparative Example 1 (higher = more potent)” value under setting [2] is on record as above 207.

The values are drawn from patent publication US20150368242A1, “NOVEL TETRAHYDROPYRIDOPYRIMIDINONE DERIVATIVE” (Ajinomoto Co., Inc., priority 2013, published 2015).
